Assays:
[1] = system: HMEC-1 (microvascular endothelial cells; CD44+ve); assay: cell invasion in a modified Boyden chamber system, HMEC-1; format: cell-based, Human; details: 48 h
Experimental: (§1) Twelve well plate polycarbonate inserts were divided into two groups with half remaining uncoated and half coated with 100 μg/cm^2 of Matrigel. The coated inserts were allowed to dry overnight at room temperature in a sterile tissue culture hood. The required cell line; HMEC-1, PC3 or MDA231 was trypsinised, re-suspended in fresh medium and the cell number calculated. 5×10^5 cells, in a total volume of 500 μl, were added to the insert (top chamber) and 1.5 ml of complete medium added to the bottom chamber of the plate as a stimulus for invasion. FKBP-L 24mer was added to both the upper and lower chamber of the plate at the required concentration in the experimental wells. The plate was incubated for 24 h (PC3 or MDA231) or 48 h (HMEC-1).
(§2) The inserts were carefully removed from their 12 well plate and inserts without Matrigel coating were placed directly into Carnoys fixative. […]
(§3) The polycarbonate inserts were cut from the holders and placed on to mounting medium on a microscope slide. […] The slides were stored at 4° C. until analysed.
(§4) Ten images from each insert were captured and the number of fluorescent cells per image was analysed by Lucia Imaging software. The ratio of cells visible on non-coated inserts compared to cells visible on Matrigel coated inserts was expressed as % invasion. […]

[2] = system: MDA-231 (breast; CD44+ve); assay: cell invasion in a modified Boyden chamber system, MDA-231; format: cell-based; details: 24 h
Experimental: as §1, §2, §3, §4

HMEC-1 = assay: cell adhesion assay on Matrigel (MTT readout); format: cell-based, Human; details: 1 h at 37° C.
Experimental: A 96-well plate was pre-coated with a thin layer of Matrigel which was allowed to set overnight. The plate wells were blocked with 0.5% BSA for 1 h at 37° C. in a 95% air/5% CO2 incubator. Human microvascular endothelial cells (HMEC-1) were trypsinised and re-suspended in fresh medium and seeded at a density of 20000 cells per well. The plates were placed at 4° C. for 10 min to allow the cells to sediment to the bottom of the wells. The required amount of medium supplemented with the FKBP-L 24mer was added to each well and the plate incubated for 1 h at 37° C. The excess medium and unattached cells were removed and the wells washed three times with sterile PBS. The wells were supplemented with fresh medium and MTT added (5 mgml^−1). The plate was incubated for a further 4 h at 37° C. DMSO was added to each well to solubilise the MTT to formazen and the plate read at 540nm, with the relative absorbance of control wells compared to FBKP-L 24mer-supplemented wells.

HMEC-1 cells = assay: MTT assay of cell viability/proliferation; details: 24mer 10^−5-10^−10M, 1-57mer 10^−9M and 10^−10M; 24 hours and 48 hours
Experimental: An MTT assay was used to measure cell viability/proliferation.
An MTT assay was used to measure cell viability and/or proliferation. Briefly, HMEC-1 cells were seeded (2.5×10^3) in 96 well plates and allowed to attach for 5 h. The cells were treated with FKBP-L 24mer (SEQ ID NO: 10) (10^−5-10^−10M), 1-57mer (SEQ ID NO: 6) (10^−9M and 10^−10M) or medium (control).
Post incubation the cells were exposed to a 5 mgml^−1 solution of 3-(-4,5-dimethylthiazol-2-yl) 2,5 diphenyl tetrazolium (MTT) for 4 h. The cells were aspirated and 200 μl of DMSO added to reduce the salt and induce a colour change.

[3] = system: HT29 (Colorectal tumor cell line; CD44 +ve); assay: tumor cell migration, wound closure assay, HT29; format: cell-based; details: 24 hours
Experimental: In these experiments, the effect of recombinant FKBP-L on tumor cell migration was assessed. The in vitro migration assay used in these studies is a modified version of the method described by Ashton et al (1999) see supra. PC3, MDA231, and HT29 tumor cells were plated into individual chambers on a glass slide and grown to 90% confluence overnight. The medium was removed and the monolayers wounded. The monolayer was re-supplemented with fresh medium and the required volume of His-tagged recombinant FKBP-L protein (SEQ ID NO: 1) was added to give the final concentrations shown. The monolayers were incubated for 24 hours and then fixed in 4% PBS buffered paraformaldehyde.
The extent of “wound” closure was blindly assessed microscopically by an independent investigator and quantified using a calibrated eyepiece graticule (1 mm/100 μm graduation) at 20× magnification (Olympus BX 50). The extent of closure in the FKBP-L treated slides was compared to time matched sham-treated controls and the percent inhibition of wound closure compared to time matched controls calculated. […]
The extent of “wound” closure was blindly assessed microscopically by an independent investigator and quantified using a calibrated eyepiece graticule (1 mm/100 μm graduation) at 20× magnification (Olympus BX 50). […]

H-QIRQQPRDPPTETLELEVSPDPAS-OH [FKBP-L 24mer]
effect on cell invasion through Matrigel [1]: potent inhibitor | effect on cell invasion through Matrigel [2]: potent inhibitor | effect on cell adhesion (HMEC-1): potent inhibitor of HMEC-1 adhesion | effect on proliferation of HMEC-1 cells compared to time-matched controls (HMEC-1 cells): neither of the peptides had any significant effect

B1: full length recombinant FKBP-L: recombinant full length his-tagged FKBP-L protein (SEQ ID NO: 1) expressed in BL21 (DE3) (protein, listed as Homo sapiens)
chain: MRGSHHHHHHGMASMTGGQQMGRDLYDDDDKDRWGSMETPPVNTIGEKDTSQPQQEWEKNLRENLDSVIQIRQQPRDPPTETLELEVSPDPASQILEHTQGAEKLVAELEGDSHKSHGSTSQMPEALQASDLWYCPDGSFVKKIVIRGHGLDKPKLGSCCRVLALGFPFGSGPPEGWTELTMGVGPWREETWGELIEKCLESMCQGEEAELQLPGHTGPPVGLTLASFTQGRDSWELETSEKEALAREERARGTELFRAGNPEGAARCYGRALRLLLTLPPPGPPERTVLHANLAACQLLLGQPQLAAQSCDRVLEREPGHLKALYRRGVAQAALGNLEKATADLKKVLAIDPKNRAAQEELGKVVIQGKNQDAGLAQGLRKMFG
modifications: His tag
effect on tumor cell migration [3]: inhibits tumor cell migration in a dose-dependent manner
